Test results as given in patent US20230085307A1, “PYRIDAZINONE COMPOUND AND HERBICIDE” (NISSAN CHEMICAL CORPORATION, priority 2019, published 2023).

Assays:
[1] = tested on: windgrass; test: Test Example 5: herbicidal effect by foliage application, plastic box (Table 20, symbol L); type: in vivo, windgrass (Apera spica-venti); conditions: foliage application, 320 g/ha, evaluated three weeks after application
How it was run: (§1)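 Post-emergence foliar test in sterilized diluvial soil. Compound applied as water-diluted emulsion at a predetermined rate to 14-day-old plants; evaluation at three weeks.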

[2] = tested on: southern crabgrass; test: Test Example 4: herbicidal effect by soil treatment (Table 19, symbol F); type: in vivo, southern crabgrass (Digitaria ciliaris); conditions: amount of applied herbicide 320 g/ha
How it was run: (§2)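 Scoring uses the grading scale of an earlier test, three weeks post-application. Treatment consists of spraying a diluted emulsion formulation across the surface of sterilized diluvial soil in which seeds are buried near 1.5 cm deep; boxes are kept in a greenhouse between 25° C. and 30° C.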

[3] = tested on: southern crabgrass; test: Test Example 5: herbicidal effect by foliage application, plastic box (Table 20, symbol F); type: in vivo, southern crabgrass (Digitaria ciliaris); conditions: foliage application, 320 g/ha, evaluated three weeks after application
How it was run: as §1

[4] = tested on: velvetleaf; test: Test Example 4: herbicidal effect by soil treatment (Table 19, symbol M); type: in vivo, velvetleaf (Abutilon theophrasti); conditions: amount of applied herbicide 320 g/ha
How it was run: as §2

[5] = tested on: redroot pigweed; test: Test Example 4: herbicidal effect by soil treatment (Table 19, symbol N); type: in vivo, redroot pigweed (Amaranthus retroflexus); conditions: amount of applied herbicide 320 g/ha
How it was run: as §2

[6] = tested on: Italian ryegrass; test: Test Example 5: herbicidal effect by foliage application, plastic box (Table 20, symbol K); type: in vivo, Italian ryegrass (Lolium multiflorum); conditions: foliage application, 320 g/ha, evaluated three weeks after application
How it was run: as §1

[7] = tested on: chickweed; test: Test Example 4: herbicidal effect by soil treatment (Table 19, symbol P); type: in vivo, common chickweed (Stellaria media); conditions: amount of applied herbicide 320 g/ha
From the text: (§3) [Test Example 4] Herbicidal Effect Test by Soil Treatment
(§4) Sterilized diluvial soil was placed in a plastic box having a length of 21 cm, a width of 13 cm, and a depth of 7 cm. The seeds of each of southern crabgrass, green foxtail, barnyard grass, wild oat, blackgrass, Italian ryegrass, windgrass, velvetleaf, redroot pigweed, lambsquarters, chickweed, false cleavers, persian speedwell, corn, soybean, rice, wheat, beet, and rapeseed were sowed in a spot-like manner and covered with the soil having a thickness of about 1.5 cm. Subsequently, the emulsion agent of the compound of the present invention prepared according to Formulation Example 2 was diluted with water so as to achieve a predetermined herbicide amount, and the diluted emulsion agent was uniformly applied to the surface of the soil with a small-sized spray. The plastic box was placed in a greenhouse at 25° C. to 30° C. for growth of the plants. Three weeks after the herbicide application, the effect of the herbicide on each plant was evaluated according to the criteria of Test Example 1.

[8] = tested on: blackgrass; test: Test Example 5: herbicidal effect by foliage application, plastic box (Table 20, symbol J); type: in vivo, blackgrass (Alopecurus myosuroides); conditions: foliage application, 320 g/ha, evaluated three weeks after application
How it was run: as §1

[9] = tested on: lambsquarters; test: Test Example 5: herbicidal effect by foliage application, plastic box (Table 20, symbol O); type: in vivo, lambsquarters (Chenopodium album); conditions: foliage application, 320 g/ha, evaluated three weeks after application
How it was run: as §1

[10] = tested on: green foxtail; test: Test Example 4: herbicidal effect by soil treatment (Table 19, symbol G); type: in vivo, green foxtail (Setaria viridis); conditions: amount of applied herbicide 320 g/ha
How it was run: as §2

[11] = tested on: Italian ryegrass; test: Test Example 4: herbicidal effect by soil treatment (Table 19, symbol K); type: in vivo, Italian ryegrass (Lolium multiflorum); conditions: amount of applied herbicide 320 g/ha
How it was run: as §2

[12] = tested on: windgrass; test: Test Example 4: herbicidal effect by soil treatment (Table 19, symbol L); type: in vivo, windgrass (Apera spica-venti); conditions: amount of applied herbicide 320 g/ha
From the text: as §3, §4

[13] = tested on: barnyard grass; test: Test Example 3: herbicidal effect by foliage application, Wagner pot (Table 18, symbol H); type: in vivo, barnyard grass (Echinochloa crus-galli); conditions: amount of applied herbicide 320 g/ha
How it was run: (§5)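 Plants were sown in alluvial soil held under 0.1–0.5 cm standing water and grown 14 days in a greenhouse at 25–30 °C. An emulsifiable formulation, water-diluted to the set dose, was then sprayed onto the foliage, and effects were scored three weeks later using previously defined criteria.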

[14] = tested on: blackgrass; test: Test Example 4: herbicidal effect by soil treatment (Table 19, symbol J); type: in vivo, blackgrass (Alopecurus myosuroides); conditions: amount of applied herbicide 320 g/ha
From the text: as §3, §4

[15] = tested on: velvetleaf; test: Test Example 5: herbicidal effect by foliage application, plastic box (Table 20, symbol M); type: in vivo, velvetleaf (Abutilon theophrasti); conditions: foliage application, 320 g/ha, evaluated three weeks after application
How it was run: as §1

[16] = tested on: wild oat; test: Test Example 4: herbicidal effect by soil treatment (Table 19, symbol I); type: in vivo, wild oat (Avena fatua); conditions: amount of applied herbicide 320 g/ha
How it was run: as §2

[17] = tested on: chickweed; test: Test Example 5: herbicidal effect by foliage application, plastic box (Table 20, symbol P); type: in vivo, common chickweed (Stellaria media); conditions: foliage application, 320 g/ha, evaluated three weeks after application
How it was run: as §1

[18] = tested on: Chinese sprangletop; test: Test Example 3: herbicidal effect by foliage application, Wagner pot (Table 18, symbol D); type: in vivo, chinese sprangletop (Leptochloa chinensis); conditions: amount of applied herbicide 320 g/ha
How it was run: as §5

[19] = tested on: green foxtail; test: Test Example 5: herbicidal effect by foliage application, plastic box (Table 20, symbol G); type: in vivo, green foxtail (Setaria viridis); conditions: foliage application, 320 g/ha, evaluated three weeks after application
How it was run: as §1

[20] = tested on: lambsquarters; test: Test Example 4: herbicidal effect by soil treatment (Table 19, symbol O); type: in vivo, lambsquarters (Chenopodium album); conditions: amount of applied herbicide 320 g/ha
How it was run: as §2

[21] = tested on: rice flat sedge; test: Test Example 3: herbicidal effect by foliage application, Wagner pot (Table 18, symbol E); type: in vivo, rice flat sedge (Cyperus iria); conditions: amount of applied herbicide 320 g/ha
How it was run: as §5

[22] = tested on: wild oat; test: Test Example 5: herbicidal effect by foliage application, plastic box (Table 20, symbol I); type: in vivo, wild oat (Avena fatua); conditions: foliage application, 320 g/ha, evaluated three weeks after application
How it was run: as §1

[23] = tested on: redroot pigweed; test: Test Example 5: herbicidal effect by foliage application, plastic box (Table 20, symbol N); type: in vivo, redroot pigweed (Amaranthus retroflexus); conditions: foliage application, 320 g/ha, evaluated three weeks after application
How it was run: as §1

[24] = tested on: barnyard grass; test: Test Example 4: herbicidal effect by soil treatment (Table 19, symbol H); type: in vivo, barnyard grass (Echinochloa crus-galli); conditions: amount of applied herbicide 320 g/ha
How it was run: as §2

[25] = tested on: persian speedwell; test: Test Example 5: herbicidal effect by foliage application, plastic box (Table 20, symbol R); type: in vivo, Persian speedwell (Veronica persica); conditions: foliage application, 320 g/ha, evaluated three weeks after application
How it was run: as §1

[26] = tested on: barnyard grass; test: Test Example 5: herbicidal effect by foliage application, plastic box (Table 20, symbol H); type: in vivo, barnyard grass (Echinochloa crus-galli); conditions: foliage application, 320 g/ha, evaluated three weeks after application
How it was run: as §1

Structure (SMILES): COc1ccc(-c2sc3ccc(Cl)cc3c2-c2c(O)c(C)nn(C)c2=O)cc1C [2-119]
- herbicidal effect on L: windgrass [1]: 0 (Herbicidal rate of 5% or less (almost no effect))
- F: southern crabgrass, herbicidal effect rating [2]: 0 (Herbicidal rate of 5% or less (almost no effect))
- herbicidal effect on F: southern crabgrass [3]: 0 (Herbicidal rate of 5% or less (almost no effect))
- M: velvetleaf, herbicidal effect rating [4]: 0 (Herbicidal rate of 5% or less (almost no effect))
- N: redroot pigweed, herbicidal effect rating [5]: 0 (Herbicidal rate of 5% or less (almost no effect))
- herbicidal effect on K: Italian ryegrass [6]: 0 (Herbicidal rate of 5% or less (almost no effect))
- P: chickweed, herbicidal effect rating [7]: 0 (Herbicidal rate of 5% or less (almost no effect))
- herbicidal effect on J: blackgrass [8]: 3 (Herbicidal rate of 40% or more and less than 70%)
- herbicidal effect on O: lambsquarters [9]: 3 (Herbicidal rate of 40% or more and less than 70%)
- G: green foxtail, herbicidal effect rating [10]: 0 (Herbicidal rate of 5% or less (almost no effect))
- K: Italian ryegrass, herbicidal effect rating [11]: 0 (Herbicidal rate of 5% or less (almost no effect))
- L: windgrass, herbicidal effect rating [12]: 0 (Herbicidal rate of 5% or less (almost no effect))
- herbicidal effect on H: barnyard grass [13]: 3 (Herbicidal rate of 40% or more and less than 70%)
- J: blackgrass, herbicidal effect rating [14]: 0 (Herbicidal rate of 5% or less (almost no effect))
- herbicidal effect on M: velvetleaf [15]: 3 (Herbicidal rate of 40% or more and less than 70%)
- I: wild oat, herbicidal effect rating [16]: 0 (Herbicidal rate of 5% or less (almost no effect))
- herbicidal effect on P: chickweed [17]: 1 (Herbicidal rate of 5% or more and less than 20%)
- herbicidal effect on D: Chinese sprangletop [18]: 2 (Herbicidal rate of 20% or more and less than 40%)
- herbicidal effect on G: green foxtail [19]: 0 (Herbicidal rate of 5% or less (almost no effect))
- O: lambsquarters, herbicidal effect rating [20]: 2 (Herbicidal rate of 20% or more and less than 40%)
- herbicidal effect on E: rice flat sedge [21]: 3 (Herbicidal rate of 40% or more and less than 70%)
- herbicidal effect on I: wild oat [22]: 0 (Herbicidal rate of 5% or less (almost no effect))
- herbicidal effect on N: redroot pigweed [23]: 0 (Herbicidal rate of 5% or less (almost no effect))
- H: barnyard grass, herbicidal effect rating [24]: 0 (Herbicidal rate of 5% or less (almost no effect))
- herbicidal effect on R: persian speedwell [25]: 3 (Herbicidal rate of 40% or more and less than 70%)
- herbicidal effect on H: barnyard grass [26]: 1 (Herbicidal rate of 5% or more and less than 20%)
